One data set relates to BEL-7402 (Liver Cancer). Put plainly: SRB assay, BEL-7402. The settings on record: Homo sapiens, 72 h, read-out: IC50 (μM) (mean ± SD). The data set is classed as cell-based. How it is done: (§1) Experimental method: The antineoplasmic activities in vitro of the compounds were determined by SRB assay. The detailed procedure was as follows. The cells in the logarithmic growth phase were inoculated on a 96-well microculture plate with a suitable density (100 μl/well), and allowed to attach overnight, followed by addition of the compound at different concentrations to be treated for 72 h. For each concentration, the test was carried out in triplicate wells, and included control wells containing the aqueous medium of normal saline and a blank well containing all medium without cells for zeroing. After cultured overnight, the cells were treated with the compound at different concentrations for 72 h. After the treatment, the culture medium was removed, and the cells were fixed with 10% (wt/vol) trichloroacetic acid (100 μL/well) at 4° C. for 1 h. The cells were then washed with distilled water for 5 times, and died at room temperature, followed by addition of a SRB solution (4 mg/mL, dissolved in 1% glacial acetic acid) at 100 μL/well. The cells were incubated and stained at room temperature for 15 min, then washed with 1% glacial acetic acid for 5 times to remove the uncombined SRB, and died at room temperature. 100 μL of 10 mM Tris solution was added in each well, and the Optical Density (OD) were measured at a wavelength of 560 nm on a VERSMax ELISA Reader (Molecule Devices). The growth inhibition of the compound against tumor cells was calculated according to the following equation: Growth inhibition (%)=(ODcontrol−ODtreated)/ODcontrol×100%.
(§2) IC50 (the concentration of the sample compound that is required for 50% inhibition of cell growth) was calculated by using the Logit method based on the measurement, and each test was repeated for 3 times to calculate the mean value and standard deviation.

A further data set concerns HepG2 (Liver Cancer). Put plainly: SRB assay, HepG2. The settings on record: Homo sapiens, 72 h, read-out: IC50 (μM) (mean ± SD). Type of data set: cell-based. As for the experimental part:
as §1, §2

Data set [1] relates to MDA-MB-435S human breast cancer cells. Put plainly: MTT assay, proliferation of MDA-MB-435S cells. Type of data set: cell-based. The settings on record: 72 h. In a few lines: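 MDA-MB-435S cells were seeded at 3000/well, left to adhere overnight, then exposed for 72 h at 37 °C, 5% CO2 to six graded compound concentrations in triplicate. Read-out was MTT (3 h), with formazan dissolved in DMSO and absorbance at 550/690 nm. Survival is relative to DMSO vehicle, and IC50 comes from the survival–concentration curve.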

Data set [2] has as its system HPAF-II (Pancreatic Cancer). Description: SRB assay, HPAF-II. Type of data set: cell-based. Particulars: Homo sapiens, 72 h, read-out: IC50 (μM) (mean ± SD). As for the experimental part:
as §1, §2

A further data set relates to HCT-116 (Colon Cancer). Description: SRB assay, HCT-116. Particulars: Homo sapiens, 72 h, read-out: IC50 (μM) (mean ± SD). The data set is classed as cell-based. As for the experimental part: as §1, §2
Data set [3] deals with SGC-7901 (Gastric Cancer). Put plainly: SRB assay, SGC-7901. The settings on record: Homo sapiens, 72 h, read-out: IC50 (μM) (mean ± SD). Type of data set: cell-based. As for the experimental part:
as §1, §2

A further data set relates to HMEC (Others). Description: SRB assay, HMEC. The data set is classed as cell-based. The settings on record: Homo sapiens, 72 h, read-out: IC50 (μM) (mean ± SD). How it is done:
as §1, §2

For another data set, the system named is A549 (Lung Cancer). Description: SRB assay, A549. Particulars: Homo sapiens, 72 h, read-out: IC50 (μM) (mean ± SD). Type of data set: cell-based. As for the experimental part: as §1, §2
The subject of data set [4] is colon cancer cells HCT116. Put plainly: MTT assay, HCT116 cells. The data set is classed as cell-based. Particulars: Homo sapiens, HCT-116, 72 h. How it is done: The adhered MDA-MB-4355 cells in logarithmic growth phase, were digested by 0.05% trypsogen, counted and formulated into a cell suspension with a medium. After counted, the suspension was inoculated on a 96-well plate with 3000 cells and 100 μl medium per well. The inoculated 96-well plate was placed overnight in an incubator at 37 with 5% CO2 to allow the cells to adhere to the wall. On the next day, the administration of the drugs started. Before the administration, into some of the control wells, each was added 20 μl of the MTT solution (5 mg/ml) without removing the medium therein. After incubated for 3 h, the absorption at A550/690 was recorded as the initial cell concentration. For the drug wells, each was added into 100 μl of medium containing 2 μl of compound solution. For the control wells which use DMSO as background control, each was also added into 100 μl of medium containing 2 μl of DMSO. In addition, each experiment was carried out with adriamycin as the positive control. Subsequently, the 96-well plate was incubated in an incubator at 37 with 5% CO2 for 72 h. each compound was tested in triplicate wells (6 μl of compound solution was put into a sterilized eppendorf centrifuge tube, then 300 μl of medium was added and mixed well, and the mixture was distributed into 3 wells respectively), and at six concentrations which form a gradient. 3 days (72 h) later, 40 μl of MTT solution (5 mg/ml) was put into each well directly (without sucking off the medium therein), and the plate was incubated in the incubator for 3 h and then taken out. The liquid in each well was sucked off, and then 100 μl of DMSO was put into each well to dissolve the crystal completely with slight shake. The absorbance of the solution in each well was determined at 550/690 nm on an ELISA Reader as the cell density after treated with the compound. The growth inhibition of compound against breast cancer cells MDA-MB-435S was represented by the cell survival rate, and IC50 was determined from the profile of cell survival rate vs compound concentration. The calculating formula was as follows: cell survival rate=[(cells+compound)A550/690/(cells+compound vector DMSO)A550/690]×100%
MDA-MB-435S: human breast cancer cells; HCT116: colon cancer cells; A549: lung adenocarcinoma cells; Hela: uterine cervix cancer cells.
The tests were performed in the same manner as that of experimental example 1, except that for Hela cells, after counted, each well was seeded with 1000 cells and 100 μl of medium on a 96-well plate.

Another data set concerns DU145 (Prostatic Cancer). Put plainly: SRB assay, DU145. The settings on record: Homo sapiens, DU-145, 72 h, read-out: IC50 (μM) (mean ± SD). Type of data set: cell-based. How it is done:
as §1, §2

In the next data set the test system is SMMC-7721 (Liver Cancer). Put plainly: SRB assay, SMMC-7721. The settings on record: Homo sapiens, 72 h, read-out: IC50 (μM) (mean ± SD). Type of data set: cell-based. As for the experimental part:
as §1, §2

Another data set relates to Zip177 (Liver Cancer). Description: SRB assay, Zip177. Type of data set: cell-based. The settings on record: 72 h, read-out: IC50 (μM) (mean ± SD). As for the experimental part:
as §1, §2

In data set [5] the test system is human breast cancer cells MDA-MB-435 transplanted on nude mice. Particulars: mouse, in vivo.
Description: Dosage: among 3 groups, the dosages of L538 were set at 5, 10 and 20 mg/kg as the high, middle and low dosages, respectively, administrating intravenously 3 times a week; while MMC was administrated intravenously at the first day whit a dosage of 5 mg/kg.
Animals: BALB/CA nude mice, male, 40-45 days old, body weight: 18±1 g, provided by Shanghai Institute of Materia Medica, Chinese Academy of Sciences. […] Animal number in each group: 7 in negative control group, and 4 in administration group.
The amount of inoculated cells was 5×10^6. After the transplanted tumor was formed by inoculation, it was used after passed for 3 generations in nude mice.
Experimental procedure: tumor tissue in productive phase was cut into nubs of about 1.5 mm^3. Under sterile conditions, the nubs were inoculated subcutaneously in right axillary fossa of the nude mice. The diameters of the transplanted tumors on nude mice were measured by a vernier caliper. When the tumors grew up to 100-200 mm^3, the animals were divided randomly into groups. Mice in experimental groups were administered intravenously every other day. […] The total administration duration was 3 weeks. For the positive control, MMC, Mice were administered intravenously once at the first day of a week, and the total administration duration was 3 weeks. Mice in control groups were administrated physiologic saline in equivalent amount. The diameter of the tumor and weight of mice were measured twice a week. The equation for calculating the TV (tumor volume) was as follows: TV=½×a×b^2, • wherein, a is length and b is width. RTV (relative tumor volume) was calculated based on the measured results, and the equation thereof was as follows: RTV=Vt/V0 • wherein, V0 is the tumor volume measured when the mice were grouped (i.e. d0), and Vt is the tumor volume at each measurement. The evaluation index for the antitumor activity was the relative tumor proliferation rateT/C (%).
The calculation equation was as follows: T/C(%)=(TRTV/CRTV)×100, • wherein, TRTV is the RTV of therapeutic Group and CRTV is RTV of negative control group.
The subject of another data set is HO-8910 (Ovarian Cancer). Description: SRB assay, HO-8910. Type of data set: cell-based. Particulars: 72 h, read-out: IC50 (μM) (mean ± SD). How it is done:
as §1, §2

The next data set deals with 7404 (Liver Cancer). Put plainly: SRB assay, 7404. The data set is classed as cell-based. Particulars: 72 h, read-out: IC50 (μM) (mean ± SD). How it is done:
as §1, §2

Like-named read-outs stand apart in the source and are kept apart here.

For `CO[C@@H](C(=O)N[C@@H](C)C(=O)NCCOC(=O)C12CC3CC(CC(C3)C1)C2)[C@H](O)[C@@H](O)[C@H](O)/C=C/C(C)(C)C` [Compound L538], the IC50 in the data set with BEL-7402 (Liver Cancer) was 0.37 ± 0.27 µM; in the data set with HepG2 (Liver Cancer), 0.45 ± 0.07 µM; in [1] (read-out: Cell Survival Rate IC50) it was 0.49 µM; in [1] (Homo sapiens, note: MDA-MB-435S, read-out: IC50 (MDA-MB-435)), 0.494 ± 0.139 µM; in data set [1] (Homo sapiens, read-out: Cell Survival Rate IC50), 0.43 µM; in data set [2], 0.65 ± 0.21 µM. Further, the IC50 in the data set on HCT-116 (Colon Cancer) stood at 0.24 ± 0.1 µM; in data set [3] it was 3.92 ± 1.78 µM; in the data set on HMEC (Others), 0.17 ± 0.06 µM; with A549 (Lung Cancer), 0.02 ± 0.004 µM; in [4], 0.098 ± 0.009 µM; in the data set on DU145 (Prostatic Cancer), 0.14 ± 0.04 µM. Moreover, the IC50 in the data set on SMMC-7721 (Liver Cancer) is 0.58 ± 0.04 µM; with Zip177 (Liver Cancer), 0.37 ± 0.06 µM; with HO-8910 (Ovarian Cancer), above 20 µM; with 7404 (Liver Cancer), above 20 µM. Also, in data set [5], the dead nude mice result was “none of the experimental groups had dead nude mice”.

These data come from patent US8470763B2, “Alpha-amino-N-substituted amides, pharmaceutical composition containing them and uses thereof” (Shanghai Institute of Materia Medica Chinese Academy of …, priority 2007, dated 2013).
